Results as given in patent US20220249364A1, “Designed Inhibitors of Tight Junction Formation” (University of Rochester, priority 2019, published 2022).
No end group written: not given here.

How the values were obtained:
[1] = test system: 16HBE cells; experiment: TER measurement of tight junction disruption in 16HBE cells; format: cell-based, human; settings: 12 and 96 μM, over 24 hours
Procedure: PHFK were isolated from discarded foreskin tissue. Isolation and propagation procedures for both PHFK and 16HBE cells were done as previously described (Poumay, Roland, Leclercq-Smekens, & Leloup, 1994; Saatian et al., 2013).
10 mgs of synthesized TJDP (RS SYNTHESIS) was dissolved in 100 μl of DMSO (SIGMA). Dissolved peptide was then diluted in pre-warmed (55 ° C.) DMSO/PLURONIC F127® (SPECTRUM) solution formulated in PBS (0.6% / 0.12%, respectively). This solution was heated at 55° C. for 30 minutes then homogenized into detergent using a water bath sonicator (BRANSON 2200) for 10 minutes and vortexed for 1 minute. Peptide was stored at 4° C. until use.
TER and paracellular flux were done as previously published (De Benedetto, Rafaels, et al., 2011). […] 2 μM of fluorescently-labeled antibody (palivizumab) was added to cells after 24 hours of exposure to TJDP and paracellular flux was measured 30 minutes and 18 hours later.
Initial experiments employed the human bronchial epithelial cell line, 16HBE since this cell line is known for its robust TJ formation (Saatian et al., 2013). […] The honeycomb fluorescence pattern of these proteins on the cell surface is a hallmark of a barrier competent TJ (Furuse, Fujita, Hiiragi, Fujimoto, & Tsukita, 1998; Furuse et al., 1993). […] The antibody diffusion was measured at 30 min to reduce the likelihood that active transcellular transport was measured.

[2] = test system: primary human foreskin keratinocytes (PHFK); experiment: WST-1 cell viability assay in PHFK; format: cell-based
Procedure: (§1) For cytotoxicity measurements, cells were plated at a density of 75,000 cells/well in a 96-well plate and grown to confluence (2 days). Cells were then exposed to vehicle or TJDP and viability was measured at 24, 48 and 96 hours. WST-1 reagent (ROCHE) was diluted 20-fold into each well, and cells were incubated at 37° C. Duplicate readings were taken at 0.5 and 1 hour after addition using a THERMO MULTISKAN EX plate reader (A450—background A620). Media only wells were subtracted and values were normalized to media treated controls.

[3] = test system: 16HBE cells; experiment: WST-1 cell viability assay in 16HBE cells; format: cell-based, human; settings: 50 μM, highest concentration tested
Procedure: as §1

| Substance | effect on TER values (control peptide) [1] | toxicity (WST-1) ([2]; 30 μM, p<0.05) | cell death (WST-1) ([2]; lower concentrations with robust inhibition of TJ formation) | viability (WST-1) [3] |
| --- | --- | --- | --- | --- |
| (FKFE)2 | did not affect TER values | – | – | – |
| SILTGVSTLDQSLKQLSNFSQAVSTQSSR [Peptide 2] | – | Modest toxicity | no appreciable cell death | no loss of viability |
| SSVSQSTGQIQSKVFDSLLNLSSTLQATR [Peptide 1] | – | – | – | no loss of viability |
